Legend:
[1] = test system: P. aeruginosa (ATCC 9027); assay: Protocol 3 time-dependent antimicrobial activity at one dose level; format: cell-based, Pseudomonas aeruginosa
Protocol: (§1) The objective of this protocol is to establish a procedure for determining the antimicrobial activity of indolicidin (e.g., L-IND) at 50 μg/ml over an extended exposure time up to 24 hours at room temperature. It is believed that this procedure more closely mimics the recommended use of lens-care products.
(§2) Exposure of the test organism to indolicidin occurs in a buffered solution for up to 24 hours with sampling for viability at different time intervals. Polypropylene 96-well microtiter plates and microcentrifuge tubes are used for exposure and dilution of indolicidin, respectively.
(§3) The following materials are used: sterile glass tubes containing 5 ml of Mueller-Hinton Broth (MHB), Mueller-Hinton agar plates, sterile 96-well polypropylene microtiter plates, and sterile polypropylene microcentrifuge tubes.
(§4) One or more of the following microorganisms are used in assays using this protocol or modification of this protocol: Pseudomonas aeruginosa (ATCC 9027), Pseudomonas aeruginosa (ATCC 27853), and S. aureus (ATCC 6538).
Five 5 ml of MHB tubes are innoculated with the tester strain(s) from MHA plates and grown overnight at 37° C. on a shaker (180 rpm). A micropipet tip is prewet for at least 2 minutes with 100 μl of the stock solution of indolicidin (e.g., L-IND). The test article is dispensed back in the stock solution vial and the pipette is reset to a volume of 10 μl. Polypropylene microcentrifuge tubes are used to dilute the stock of indolicidin (10 mg/ml) 10-fold in sterile water. To obtain a 10× solution of indolicidin with a dose level equivalent to 50 μg/ml dose level dilute 10 μl of the stock solution of indolicidin in 90 μl of sterile water. (The concentration of indolicidin in the final exposure volume of […] will be 5 μg when 10 μl of the 10× solution is added to 100 μl of bacterial suspension). The overnight cultures are washed twice in sterile saline and resuspend in appropriate buffer. The washed culture is diluted in the appropriate buffer to give an estimated 10^6 CFU/ml. Then 10 μl of the 10× test peptide dilutions are added to a predetermined number of wells in the polypropylene microtiter plate. 100 μl of the bacterial suspension is dispensed to the wells in the polypropylene microtiter plate containing the test chemical and mixed well. Controls include one well each for negative controls, i.e., bacteria only sampled at the initiation of the experiment and at the completion of the experiment. The microtiter plate is covered with aluminum foil to shield the exposure mixture from direct light and placed on the bench top at room temperature. At the end of each time interval, the mixture is diluted in an appropriate sterile buffer and plated for viable counts.
Survival is determined by counting the colonies appearing on plates after overnight incubation at 37° C. The results are expressed as CFU/ml and survival is expressed as the percent of the bacteria that survived the treatment.
The purpose of this experiment was to repeat Experiment 4 under identical conditions using P. aeruginosa 9027, with the exception of one additional time point of 60 minutes. The culture was washed 2 times in 10 mM sodium phosphate buffer, pH 7.4.
Protocol 3 was used with the modifications described above. The test organism was P. aeruginosa 9027. L-indolicidin was tested at 50 μg/ml only. Sterile water was used as a solvent for L-IND. 10 mM sodium phosphate buffer, pH 7.4 was used as a vehicle for exposure of bacteria to L-IND. Final incubation volume in polypropylene microtiter plates was 110 μl, and incubation times were 0, 1, 2, 5 and 15 and 60 minutes at room temperature.
This experiment was a repeat of Experiment 6 using the same exposure protocol, but with a prolonged exposure time, namely 24 hours, and using washed cells of an 18-hour old overnight culture of P. aeruginosa inoculated in Mueller-Hinton broth. Incubation times were 0 and 24 hours, at room temperature. […]

[2] = test system: P. aeruginosa (ATCC 27853); assay: as above; format: cell-based, Pseudomonas aeruginosa; details: for Bacterial growth, Buffer and L-indolicidin 50 μg/ml: 100 mM sodium phosphate buffer
Protocol: as §1, §2, §3, §4
Five 5 ml of MHB tubes are innoculated with the tester strain(s) from MHA plates and grown overnight at 37° C. on a shaker (180 rpm). A micropipet tip is prewet for at least 2 minutes with 100 μl of the stock solution of indolicidin (e.g., L-IND). The test article is dispensed back in the stock solution vial and the pipette is reset to a volume of 10 μl. Polypropylene microcentrifuge tubes are used to dilute the stock of indolicidin (10 mg/ml) 10-fold in sterile water. To obtain a 10× solution of indolicidin with a dose level equivalent to 50 μg/ml dose level dilute 10 μl of the stock solution of indolicidin in 90 μl of sterile water. (The concentration of indolicidin in the final exposure volume of 100 μl will be 5 μg when 10 μl of the 10× solution is added to 100 μl of bacterial suspension). […]
Survival is determined by counting the colonies appearing on plates after overnight incubation at 37° C. The results are expressed as CFU/ml and survival is expressed as the percent of the bacteria that survived the treatment. […]

[3] = 50 μg/ml, 100 mM sodium phosphate buffer pH 7.4, all time points 0-24 hours

In the case of `CC[C@H](C)[C@H](N)C(=O)N[C@@H](CC(C)C)C(=O)N1CCC[C@H]1C(=O)N[C@@H](Cc1c[nH]c2ccccc12)C(=O)N[C@@H](CCCCN)C(=O)N[C@@H](Cc1c[nH]c2ccccc12)C(=O)N1CCC[C@H]1C(=O)N[C@@H](Cc1c[nH]c2ccccc12)C(=O)N[C@@H](Cc1c[nH]c2ccccc12)C(=O)N1CCC[C@H]1C(=O)N[C@@H](Cc1c[nH]c2ccccc12)C(=O)N[C@@H](CCCNC(=N)N)C(=O)N[C@@H](CCCNC(=N)N)C(N)=O` [L-indolicidin, H2N-ILPWKWPWWPWRR-CONH2], the survival ([1]; 50 μg/ml, 10 mM sodium phosphate buffer, 1, 2 and 5 minutes, room temperature) is reported as 100%, the survival ([1]; 50 μg/ml, 10 mM sodium phosphate buffer, 15 minutes) is reported as 19% and the survival reduction ([1]; 50 μg/ml, 10 mM sodium phosphate buffer, 60 min) is reported as ~2 logs. For the same compound, the survival ([1]; 50 μg/ml, 10 mM sodium phosphate buffer, 24 hours, room temperature) was “no apparent survival”, the log cell reduction ([1]; 50 μg/ml, 10 mM sodium phosphate buffer, as early as after 1 minute exposure, initial 2.0×10^6 CFU/ml) was ~6 log and the survival ([1]; 50 μg/ml, 10 mM sodium phosphate buffer, exposure time 0 hr) was 1.2 × 10^6 CFU/ml. For the same compound, the survival ([1]; 50 μg/ml, 10 mM sodium phosphate buffer, exposure time 1 hr) was 6.5 × 10^5 CFU/ml, the survival ([1]; 50 μg/ml, 10 mM sodium phosphate buffer, exposure time 2 hr) was 1.1 × 10^4 CFU/ml and the survival ([1]; 50 μg/ml, 10 mM sodium phosphate buffer, exposure time 4 hr) was 0 CFU/ml. It also gave a survival ([1]; 50 μg/ml, 10 mM sodium phosphate buffer, exposure time 6 hr) of 0 CFU/ml, a survival ([1]; 50 μg/ml, 10 mM sodium phosphate buffer, exposure time 12 hr) of 0 CFU/ml and a survival ([1]; 50 μg/ml, 10 mM sodium phosphate buffer, up to 15 minutes) of 100%. For the same compound, the survival [1, 3] was “no survival”, the viability decrease ([1]; 50 μg/ml, 100 mM sodium phosphate buffer, 1 and 2 minutes) was “about 1 log” and the colonies on plates ([1]; 50 μg/ml, 100 mM sodium phosphate buffer, 15 and 60 minutes) was “No colonies”. The “colonies on plate seeded with 0.1 ml undiluted exposure mixture” value ([1]; 50 μg/ml, 100 mM sodium phosphate buffer, 5 minutes) was 34 colonies, the “Bacterial growth, Buffer and L-indolicidin 50 μg/ml” value (from here on “Bacterial growth”) ([1]; 100 mM sodium phosphate buffer, incubation time 0 hr) was 0 and the “Bacterial growth” value ([1]; 100 mM sodium phosphate buffer, incubation time 24 hr) was 0. The survival ([1]; 50 μ/ml, 10 mM sodium phosphate buffer, after 4 hours exposure) was “no detectable survival”, the survival [2, 3] was “no survival” and the “Bacterial growth” value ([2]; incubation time 0 hr) was 0. The “Bacterial growth” value ([2]; incubation time 24 hr) was 0.

Reference: patent publication US6482799B1, “Self-preserving multipurpose ophthalmic solutions incorporating a polypeptide antimicrobial” (The Regents of the University of California, priority 1999, dated 2002)
